Holding throughout (assay): growth of human tumour cells (NCI), 48 h
For assay [1], the system named is ACHN.
Assay [2] relates to CCRF-CEM.
Assay [3] concerns NCI-H226.
Assay [4] has as its system UO-31.
Assay [5] relates to SN12C.
The subject of assay [6] is OVCAR-5.
Assay [7] relates to A498.
Assay [8] relates to COLO 205.
Assay [9] deals with NCI-H460.
Assay [10] relates to HCT-116.
Assay [11] deals with NCI-H522.
Assay [12] relates to SK-MEL-5.
Assay [13] relates to SR.
Assay [14] deals with 786-0.
Assay [15] deals with EKVX.
Assay [16] has as its system NCI-H23.
Assay [17] has as its system TK-10.

Each structure is given as a SMILES string.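 Dose response: 5 concentrations. Exposure: 48 h. Format: 96-well plates. Endpoint: linear interpolation; highest concentration if not reached. Here, GI50 denotes the concentration required for 50% inhibition of growth.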 Activity calls are given as the source filed them. Cut-off read from the data, not from the text of the source: active = GI50 up to about 1.1 µM and inactive = higher.

As for `O=[N+]([O-])c1ccc(-c2cnc3ccccn23)cc1`, the GI50 was > 100 µM (inactive) in [1]; > 100 µM (inactive) in assay [2]; > 100 µM (inactive) in [3]; > 100 µM (inactive) in assay [4]; 61.2 µM (inactive) in assay [5]; > 100 µM (inactive) in assay [6]. The GI50 in assay [7], in [8], in assay [9], in [10], in assay [11] and in assay [12] was > 100 µM (inactive) throughout. For the same molecule, the GI50 in assay [13] is 84.7 µM (inactive); in assay [14], > 100 µM (inactive); in assay [15], > 100 µM (inactive); in [16], > 100 µM (inactive).

As for `CCOC(=O)C1Cc2c(ccc(OC)c2OC)C(=O)C1N` (stereo unspecified), the GI50 in assay [1], in assay [17], in assay [2], in [3], in assay [4] and in assay [5] was > 100 µM (inactive) each time. Also, the GI50 in assay [6], in assay [8], in assay [9], in assay [10], in [11] and in [12] was > 100 µM (inactive) in each case. The GI50 in [13] was 41.2 µM (inactive); in assay [14], > 100 µM (inactive); in assay [15] it was 21.5 µM (inactive); in [16], > 100 µM (inactive).

For `CCCCCCCCCCCCCCC1OC(=O)c2ccccc21` (stereo unspecified), the GI50 in assay [1] was 43.5 µM (inactive); in assay [17] it was > 100 µM (inactive); in assay [2], 32.7 µM (inactive); in assay [3], 53.3 µM (inactive); in [4] it was > 100 µM (inactive); in [5], 24.5 µM (inactive). For the same molecule, the GI50 in assay [6] was 31.7 µM (inactive); in assay [7], > 100 µM (inactive); in assay [9], 60.8 µM (inactive); in [10] it was 34.6 µM (inactive); in assay [13], 42.5 µM (inactive); in assay [14] it was > 100 µM (inactive). Moreover, the GI50 in [15] was 39.9 µM (inactive); in assay [16] it was 43.8 µM (inactive).

On to `CC(CNCCCNCCNCCCNCO)[N+](=O)[O-]` (stereo unspecified), for which the GI50 in assay [1] is 16.7 µM (inactive); in assay [17] it was 2.49 µM (inactive); in [2], 2.75 µM (inactive); in [4], 16.9 µM (inactive); in assay [5] it was 15.1 µM (inactive); in assay [6], 13.9 µM (inactive). The GI50 in assay [7] was 17.5 µM (inactive); in assay [8], 6.52 µM (inactive); in assay [9] it was 17.2 µM (inactive); in assay [10], 10.8 µM (inactive); in [12] it was 16.3 µM (inactive); in assay [13] it was 3.39 µM (inactive). The values for the GI50 in assay [14], in [15] and in assay [16] were 15.7 µM (inactive), 16 µM (inactive) and 15 µM (inactive), respectively.

In the case of `O=C1CC2C=CC1C2CO` (stereo unspecified), the GI50 in assay [1], in [17], in assay [2], in [3], in assay [4] and in assay [5] was > 100 µM (inactive) throughout. Besides, the GI50 in [6], in [7], in assay [8], in assay [9], in assay [10] and in [11] was > 100 µM (inactive) throughout. The GI50 in assay [12], in [13], in assay [14] and in [15] was > 100 µM (inactive) throughout.

For `Cn1nc(-c2ccccc2NC(=O)C(F)(F)F)c(=O)n(C)c1=S`, the GI50 was 24.5 µM (inactive) in assay [1]; 32.3 µM (inactive) in assay [17]; 32.6 µM (inactive) in assay [2]; 38.5 µM (inactive) in assay [3]; 21.7 µM (inactive) in assay [4]; 42.3 µM (inactive) in assay [5]. Moreover, the GI50 in assay [6] is 69.3 µM (inactive); in [8], > 10 µM (inactive); in [9] it was 23.5 µM (inactive); in assay [10], 38.1 µM (inactive); in assay [11], 19.3 µM (inactive); in assay [12], > 100 µM (inactive). Also, the GI50 in [13] was 18.1 µM (inactive); in [14], 61.9 µM (inactive); in assay [15] it was 31.3 µM (inactive); in [16], 29.2 µM (inactive).

For `COC(=O)CCC(=O)N1C/C(=C\c2ccccc2)C(=O)/C(=C/c2ccccc2)C1`, the GI50 is 1.97 µM (inactive) in [1]; 4.41 µM (inactive) in assay [17]; 2.74 µM (inactive) in assay [2]; 3.41 µM (inactive) in assay [3]; 2.04 µM (inactive) in assay [4]; 1.86 µM (inactive) in assay [5]. The GI50 is 2.7 µM (inactive) in assay [6]; 2.24 µM (inactive) in [7]; 2.06 µM (inactive) in assay [8]; 2.43 µM (inactive) in assay [9]; 0.41 µM (active) in assay [10]; 2.2 µM (inactive) in assay [12]. Besides, the GI50 was 1.18 µM (inactive) in [13], 2.03 µM (inactive) in [14], 3.94 µM (inactive) in [15] and 2.14 µM (inactive) in assay [16].

With `CN1C2(c3ccccc3)C(C(=O)c3ccccc3)=C(C(=O)c3ccccc3)C1(c1ccccc1)c1c(-c3ccccc3)sc(-c3ccccc3)c12`, the GI50 was > 100 µM (inactive) in assay [1]; > 100 µM (inactive) in [17]; > 100 µM (inactive) in [2]; 78.5 µM (inactive) in assay [3]; > 100 µM (inactive) in assay [4]; > 100 µM (inactive) in assay [5]. Also, the GI50 in assay [6], in assay [7], in assay [8], in assay [9], in assay [10] and in assay [11] was > 100 µM (inactive) throughout. The GI50 in [12], in [13], in assay [14], in assay [15] and in assay [16] was > 100 µM (inactive) in each case.

As to `C=C1C(=O)C23[C@H](O)C1CC[C@H]2[C@]12COC3(O)[C@@H](O)[C@@H]1C(C)(C)CC[C@@H]2O`, the GI50 in assay [1] is 16.1 µM (inactive); in assay [17] it was 17.2 µM (inactive); in assay [2], 3.03 µM (inactive); in assay [4], 15.4 µM (inactive); in [5] it was 20.1 µM (inactive); in assay [6], 18.5 µM (inactive). The GI50 in assay [7] was 9.1 µM (inactive); in assay [8] it was 0.452 µM (active); in assay [9], 16 µM (inactive); in assay [10] it was 7.28 µM (inactive); in [11], 0.552 µM (active); in assay [12] it was 15.1 µM (inactive). Besides, the GI50 is 1.34 µM (inactive) in assay [13], 11 µM (inactive) in [14], 19.7 µM (inactive) in [15] and 13.5 µM (inactive) in [16].

Turning to `CC(=O)OCCOCNC(=S)N/N=C(\C)c1cccs1`, the GI50 is > 100 µM (inactive) in assay [1]; > 100 µM (inactive) in [17]; 61.8 µM (inactive) in assay [2]; > 100 µM (inactive) in [3]; > 100 µM (inactive) in [4]; > 100 µM (inactive) in assay [5]. Besides, the GI50 in [6], in [7], in assay [8], in [9], in [10] and in [11] was > 100 µM (inactive) throughout. Further, the GI50 in assay [12], in assay [13], in [14], in [15] and in [16] was > 100 µM (inactive) each time.

As to `COc1cccc(/C=N/NC(N)=O)c1O`, the GI50 in assay [1], in assay [17], in [2], in assay [3], in assay [4] and in [5] was > 100 µM (inactive) in each case. In addition, the GI50 in assay [6], in assay [7], in [8], in assay [9], in assay [10] and in assay [11] was > 100 µM (inactive) each time. The GI50 in assay [12] is > 100 µM (inactive); in assay [13] it was 0.0603 µM (active); in [14], > 100 µM (inactive); in [15], > 100 µM (inactive); in [16], > 100 µM (inactive).

As to `COc1cccc(N2C(=O)C3C4C=C5c6ccccc6N(c6ccccc6)C5(C3C2=O)[C@H]2C(=O)N(c3cccc(OC)c3)C(=O)[C@@H]42)c1` (stereo partly specified), the GI50 in assay [17], in [2], in assay [3], in assay [4], in assay [5] and in [6] was > 100 µM (inactive) in each case. The GI50 in [7], in assay [8], in [9], in [10], in [12] and in [13] was > 100 µM (inactive) in each case. Also, the GI50 in assay [14], in assay [15] and in assay [16] was > 100 µM (inactive) in each case.

The values above are taken from ChEMBL document CHEMBL1201862, “PubChem BioAssay data set” (2004).
